Results on 30 compounds are retold here after US20160346291A1, “COMPOSITIONS AND THERAPEUTIC METHODS FOR ACCELERATED PLAQUE REGRESSION” (Resverlogix Corp, priority 2013, published 2016).

The assay concerns ApoA-I mRNA. As to the kind of experiment: ApoA-I mRNA quantitation in HepG2 cells (real-time PCR). The class given is cell-based. Details: key: Active: An active compound is one that causes a >15% increase in ApoA-I mRNA at a concentration less than or equal to 100 uM. The following applies: concentration less than or equal to 100 uM, fold induction relative to DMSO control. How it is done: At time of harvesting, the spent media was removed from the HepG2 cells and immediately placed on ice (for immediate use) or at −80° C. (for future use) in ApoA-I and albumin ELISAs. The cells remaining in the plate wells were rinsed in 200 μL PBS. PBS was carefully removed to avoid removing any loosely attached cells.
Once the PBS was removed, 85 μL cell lysis solution was added to the cells in each well and incubated for 5-10 min at room temperature, to allow for complete cell lysis and detachment. mRNA was then prepared using the “mRNA Catcher PLUS plate” from Invitrogen, according to the protocol supplied. After the last wash, as much wash buffer as possible was aspirated without allowing the wells to dry. Elution Buffer (E3, 80 μL) was then added to each well. mRNA was then eluted by incubating the mRNA Catcher PLUS plate with Elution Buffer for 5 min at 68° C. and then immediately placing the plate on ice.
The eluted mRNA was isolated and then used in a one-step real-time […]-PCR reaction, using components of the Ultra Sense Kit together with Applied Biosystems primer-probe mixes. Real-time PCR data was analyzed, using the Ct values, to determine the fold induction of each unknown sample, relative to the control (that is, relative to the control for each independent DMSO concentration).
The following compounds of Formula I were evaluated in this assay. An active compound is one that causes a >15% increase in ApoA-I mRNA at a concentration less than or equal to 100 uM.
Background: Real-time PCR tracks product formation cycle by cycle.
On to `COc1cc(OC)c2c(=O)[nH]c(-c3cc(C)c(OCCOCc4ccccc4)c(C)c3)nc2n1` [2-(4-(2-(benzyloxy)ethoxy)-3,5-dimethylphenyl)-5,7-dimethoxypyrido[2,3-d]pyrimidin-4(3H)-one], for which the “Effect on ApoA-I mRNA levels” value was “Inactive”.
To `COc1cc(OC)c2c(=O)[nH]c(-c3ccccc3C)nc2c1` [5,7-dimethoxy-2-o-tolylquinazolin-4(3H)-one] belongs “Active”; to `COc1cc(OC)c2c(=O)[nH]c(-c3ccccn3)nc2c1` [5,7-dimethoxy-2-(pyridin-2-yl)quinazolin-4(3H)-one], “Active”; to `COc1cc(OC)c2c(=O)[nH]c(-c3cc(C)c(OCCO)c(C)c3)nc2c1` [2-(4-(2-hydroxyethoxy)-3,5-dimethylphenyl)-5,7-dimethoxyquinazolin-4(3H)-one], “Active”.
With `Cc1cc(-c2nc3cc(Cl)cc(Cl)c3c(=O)[nH]2)cc(C)c1OCCO` [5,7-dichloro-2-(4-(2-hydroxyethoxy)-3,5-dimethylphenyl)quinazolin-4(3H)-one] the entry was “Active”; with `COc1cc2cc(-c3cc(C)c(O)c(C)c3)n(C)c(=O)c2c(OC)c1CN1CCOCC1` [3-(4-hydroxy-3,5-dimethylphenyl)-6,8-dimethoxy-2-methyl-7-(morpholinomethyl) isoquinolin-1(2H)-one], “Active”.
For the compound `Cc1cc(-c2nc3ccccc3c(=O)[nH]2)cc(C)c1OCCN1CCOCC1` [2-(3,5-dimethyl-4-(2-morpholinoethoxy)phenyl)quinazolin-4(3H)-one], the “Effect on ApoA-I mRNA levels” value is reported as “Active”.
With `COc1cc(OC)c2c(=O)[nH]c(-c3cc(C)c(OCCO)c(C)c3)cc2c1` [3-(4-(2-hydroxyethoxy)-3,5-dimethylphenyl)-6,8-dimethoxyisoquinolin-1(2H)-one] the entry was “Active”.
To `COc1cc(OC)c2c(=O)[nH]c(-c3cc(C)c(OCCO)c(C)c3)cc2n1` [7-(4-(2-hydroxyethoxy)-3,5-dimethylphenyl)-2,4-dimethoxy-1,6-naphthyridin-5(6H)-one] belongs “Active”.
To `COc1cc(OC)c2c(=O)[nH]c(-c3cc(C)c(OCCOC(=O)NC4CCCCC4)c(C)c3)nc2c1` [2-(4-(5,7-dimethoxy-4-oxo-3,4-dihydroquinazolin-2-yl)-2,6-dimethylphenoxy)ethyl cyclohexylcarbamate] belongs “Active”; to `COc1cc(OC)c2c(=O)[nH]c(-c3cc(C)c(OCCN4CCCC4)c(C)c3)nc2c1` [2-(3,5-dimethyl-4-(2-(pyrrolidin-1-yl)ethoxy)phenyl)-5,7-dimethoxyquinazolin-4(3H)-one], “Active”.
With `COc1cc(OC)c2c(=O)[nH]c(-c3cc(C)c(O)c(C)c3)cc2c1` [3-(4-hydroxy-3,5-dimethylphenyl)-6,8-dimethoxyisoquinolin-1(2H)-one], the “Effect on ApoA-I mRNA levels” value is given as “Active”.
With `NC(=O)COc1ccc(-c2nc3ccccc3c(=O)[nH]2)cc1` [2-(4-(4-oxo-3,4-dihydroquinazolin-2-yl)phenoxy)acetamide] the entry was “Active”; with `COc1cc(OC)c2c(=O)[nH]c(-c3cc(C)c(OCCN4C(=O)c5ccccc5C4=O)c(C)c3)nc2c1` [2-(2-(4-(5,7-dimethoxy-4-oxo-3,4-dihydroquinazolin-2-yl)-2,6-dimethylphenoxy)ethyl)isoindoline-1,3-dione], “Inactive”; with `COc1cc(OC)c2c(=O)[nH]c(-c3ccc(N4CCN(C)CC4)cc3)nc2c1` [5,7-dimethoxy-2-(4-(4-methylpiperazin-1-yl)phenyl)quinazolin-4(3H)-one], “Active”.
To `COc1cc(OC)c2c(=O)[nH]c(-c3ccc(OCC(N)=O)cc3)nc2c1` [2-(4-(5,7-dimethoxy-4-oxo-3,4-dihydroquinazolin-2-yl)phenoxy)acetamide] belongs “Active”.
To `COc1cc(OC)c2c(=O)[nH]c(-c3ccc(O)cc3)cc2c1` [3-(4-hydroxyphenyl)-6,8-dimethoxyisoquinolin-1(2H)-one] belongs “Active”; to `COc1cc(OC)c2c(=O)[nH]c(-c3cc(C)c(OCCNC(=O)Nc4ccccc4)c(C)c3)nc2c1` [1-(2-(4-(5,7-dimethoxy-4-oxo-3,4-dihydroquinazolin-2-yl)-2,6-dimethylphenoxy)ethyl)-3-phenylurea], “Active”.
On to `COc1cc(OC)c2c(=O)[nH]c(-c3cc(C)c(OCC(=O)O)c(C)c3)nc2c1` [2-(4-(5,7-dimethoxy-4-oxo-3,4-dihydroquinazolin-2-yl)-2,6-dimethylphenoxy)acetic acid], for which the “Effect on ApoA-I mRNA levels” value is “Active”.
To `COc1cc(OC)c2c(=O)[nH]c(-c3cc(C)c(O)c(C)c3)nc2c1` [2-(4-hydroxy-3,5-dimethylphenyl)-5,7-dimethoxyquinazolin-4(3H)-one] belongs “Active”.
To `COc1cc(OC)c2c(=O)[nH]c(-c3cc(C)c(OCCN4CCOCC4)c(C)c3)cc2c1` [3-(3,5-dimethyl-4-(2-morpholinoethoxy)phenyl)-6,8-dimethoxyisoquinolin-1(2H)-one] belongs “Active”; to `Cc1cc(-c2nc3ccccc3c(=O)[nH]2)cc(C)c1OCCO` [2-(4-(2-hydroxyethoxy)-3,5-dimethylphenyl)quinazolin-4(3H)-one], “Active”.
To `COc1cc(OC)c2c(=O)[nH]c(-c3ccc(N(CCO)CCO)cc3)nc2c1` [2-(4-(bis(2-hydroxyethyl)amino)phenyl)-5,7-dimethoxyquinazolin-4(3H)-one] belongs “Active”; to `COc1cc(OC)c2c(=O)[nH]c(-c3cc(C)c(OCCNS(=O)(=O)c4ccc(C)cc4)c(C)c3)nc2c1` [N-(2-(4-(5,7-dimethoxy-4-oxo-3,4-dihydroquinazolin-2-yl)-2,6-dimethylphenoxy)ethyl)-4-methylbenzenesulfonamide], “Active”; to `COc1cc(OC)c2c(=O)[nH]c(-c3cc(C)nc(Cl)c3)nc2c1` [2-(2-chloro-6-methylpyridin-4-yl)-5,7-dimethoxyquinazolin-4(3H)-one], “Active”.
As for `COc1cc(OC)c2c(=O)[nH]c(-c3ccc(O)c(Cl)c3)nc2c1` [2-(3-chloro-4-hydroxyphenyl)-5,7-dimethoxyquinazolin-4(3H)-one], the “Effect on ApoA-I mRNA levels” value is on record as “Active”.
On to `CCOc1nc(-c2cc(C)c(O)c(C)c2)nc2cc(OC)cc(OC)c12` [4-(4-ethoxy-5,7-dimethoxyquinazolin-2-yl)-2,6-dimethylphenol], for which the “Effect on ApoA-I mRNA levels” value was “Inactive”.
Turning to `Oc1ccc(-c2cc3ncccc3cn2)cc1` [4-(1,6-naphthyridin-7-yl)phenol], the “Effect on ApoA-I mRNA levels” value is listed as “Active”.
To `COc1ccc(NC(=O)NCCOc2c(C)cc(-c3nc4cc(OC)cc(OC)c4c(=O)[nH]3)cc2C)cc1` [1-(2-(4-(5,7-dimethoxy-4-oxo-3,4-dihydroquinazolin-2-yl)-2,6-dimethylphenoxy)ethyl)-3-(4-methoxyphenyl)urea] belongs “Active”.
With `COc1cc(OC)c2c(=O)[nH]c(-c3cc(C)c(NC(=O)CO)c(C)c3)nc2c1` [N-(4-(5,7-dimethoxy-4-oxo-3,4-dihydroquinazolin-2-yl)-2,6-dimethylphenyl)-2-hydroxyacetamide], the “Effect on ApoA-I mRNA levels” value is “Active”.
